Data as given in US12258327B2, “5-membered heteroaryl-containing aminopyridine compounds as EGFR inhibitors” (YUHAN CORPORATION, priority 2021, dated 2025).
Like-named read-outs stand apart in the source and are kept apart here.

What was measured:
EGFR L858R/C797S = EGFR L858R/C797S (Homo sapiens, UniProt P00533, C797S/L858R); test: Biochemical EGFR kinase assay (Lance Ultra TR-FRET), double mutant L858R/C797S
Protocol: (§1) Biochemical EGFR kinase assays were conducted using Lance Ultra time-resolved fluorescence resonance energy transfer (TR-FRET) technology from Perkin-Elmer. Compounds of the invention were initially diluted to 20 mM in 100% DMSO for storage and made into kinase buffer solution to create a compound concentration ranging from 0.003 μM and 10 μM.
(§2) Each kinase reactions were incubated at room temperature for 1 hour and then stopped by the addition of 4 μL of stop solution (10 mM EDTA). The specific Europium-labeled-anti-phosphopeptide antibody (PerkinElmer, AD0069) diluted in LANCE detection buffer was then added to a final concentration of 2 nM. After 60 minutes incubation at room temperature the LANCE signal was measured on an EnVision Multilabel Reader (Perkin-Elmer). Excitation wavelength was set at 320 nm and emission monitored at 615 nm (donor) and 665 nm (acceptor). The IC50 values were determined using GraphPad prism software (GraphPad Software, Inc., San Diego, CA, USA).

EGFR L858R/T790M/C797S = EGFR L858R/T790M/C797S (Homo sapiens, UniProt P00533, C797S/L858R/T790M); test: Biochemical EGFR kinase assay (Lance Ultra TR-FRET), triple mutant L858R/T790M/C797S
Protocol: as §1, §2

EGFR del19/C797S = EGFR del19/C797S (Homo sapiens, UniProt P00533, C797S/DEL746-750); test: Biochemical EGFR kinase assay (Lance Ultra TR-FRET), double mutant del19/C797S
Protocol: as §1, §2

EGFR wildtype (WT) = EGFR wildtype (WT) (Homo sapiens, UniProt P00533); test: Biochemical EGFR kinase assay (Lance Ultra TR-FRET), wildtype
Protocol: as §1, §2

EGFR del19/T790M/C797S = EGFR del19/T790M/C797S (Homo sapiens, UniProt P00533, C797S/DEL746-750/T790M); test: Biochemical EGFR kinase assay (Lance Ultra TR-FRET), triple mutant del19/T790M/C797S; conditions: Km ATP
Protocol: as §1, §2

[1] = Km ATP, read-out: IC50 L858R/C797S (nM) Km ATP
[2] = Km ATP, read-out: IC50 L858R/T790M/C797S (nM) Km ATP
[3] = Km ATP, read-out: IC50 del19/C797S (nM) Km ATP
[4] = Km ATP, read-out: IC50 WT (nM) Km ATP
[5] = Km ATP, read-out: IC50 L858R/C797S, Km ATP
[6] = Km ATP, read-out: IC50 L858R/T790M/C797S, Km ATP
[7] = Km ATP, read-out: IC50 del19/C797S, Km ATP
[8] = Km ATP, read-out: IC50 WT, Km ATP
[9] = IC50 L858R/C797S (nM) 100 μM ATP, 100 μM ATP
[10] = IC50 del19/C797S (nM) 100 μM ATP, 100 μM ATP
[11] = IC50 WT (nM) 100 μM ATP, 100 μM ATP

Chain of EGFR wildtype (WT) (P00533 25-1210): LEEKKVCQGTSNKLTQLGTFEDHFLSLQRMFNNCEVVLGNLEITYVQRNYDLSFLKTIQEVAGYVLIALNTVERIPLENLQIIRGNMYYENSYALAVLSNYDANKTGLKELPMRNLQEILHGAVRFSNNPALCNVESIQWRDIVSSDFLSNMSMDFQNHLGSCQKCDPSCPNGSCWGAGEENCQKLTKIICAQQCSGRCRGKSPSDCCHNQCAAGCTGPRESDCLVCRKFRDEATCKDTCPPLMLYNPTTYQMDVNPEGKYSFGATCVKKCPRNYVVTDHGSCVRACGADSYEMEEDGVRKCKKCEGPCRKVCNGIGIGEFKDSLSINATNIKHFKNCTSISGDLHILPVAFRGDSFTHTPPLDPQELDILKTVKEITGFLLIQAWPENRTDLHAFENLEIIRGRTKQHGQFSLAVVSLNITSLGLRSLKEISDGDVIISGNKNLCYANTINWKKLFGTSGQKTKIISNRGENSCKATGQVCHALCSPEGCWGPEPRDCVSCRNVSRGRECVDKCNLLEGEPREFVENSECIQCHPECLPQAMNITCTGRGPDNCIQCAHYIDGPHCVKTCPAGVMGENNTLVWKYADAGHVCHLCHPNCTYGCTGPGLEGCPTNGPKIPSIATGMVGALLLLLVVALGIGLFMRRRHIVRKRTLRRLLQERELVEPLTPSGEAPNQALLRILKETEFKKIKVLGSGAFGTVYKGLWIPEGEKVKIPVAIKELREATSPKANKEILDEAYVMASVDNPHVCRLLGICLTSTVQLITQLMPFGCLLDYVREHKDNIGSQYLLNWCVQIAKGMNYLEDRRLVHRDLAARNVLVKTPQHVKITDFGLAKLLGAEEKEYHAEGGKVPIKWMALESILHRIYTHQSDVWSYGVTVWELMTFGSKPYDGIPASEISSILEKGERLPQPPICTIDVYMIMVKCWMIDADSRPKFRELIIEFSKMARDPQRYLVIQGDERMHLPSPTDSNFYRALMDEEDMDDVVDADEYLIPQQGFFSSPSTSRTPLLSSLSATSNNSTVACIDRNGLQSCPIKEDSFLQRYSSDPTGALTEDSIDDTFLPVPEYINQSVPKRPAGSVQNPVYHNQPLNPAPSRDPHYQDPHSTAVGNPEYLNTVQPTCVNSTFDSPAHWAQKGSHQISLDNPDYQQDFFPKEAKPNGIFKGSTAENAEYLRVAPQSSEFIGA
Chain of EGFR L858R/T790M/C797S (P00533 25-1210 T790M/C797S/L858R): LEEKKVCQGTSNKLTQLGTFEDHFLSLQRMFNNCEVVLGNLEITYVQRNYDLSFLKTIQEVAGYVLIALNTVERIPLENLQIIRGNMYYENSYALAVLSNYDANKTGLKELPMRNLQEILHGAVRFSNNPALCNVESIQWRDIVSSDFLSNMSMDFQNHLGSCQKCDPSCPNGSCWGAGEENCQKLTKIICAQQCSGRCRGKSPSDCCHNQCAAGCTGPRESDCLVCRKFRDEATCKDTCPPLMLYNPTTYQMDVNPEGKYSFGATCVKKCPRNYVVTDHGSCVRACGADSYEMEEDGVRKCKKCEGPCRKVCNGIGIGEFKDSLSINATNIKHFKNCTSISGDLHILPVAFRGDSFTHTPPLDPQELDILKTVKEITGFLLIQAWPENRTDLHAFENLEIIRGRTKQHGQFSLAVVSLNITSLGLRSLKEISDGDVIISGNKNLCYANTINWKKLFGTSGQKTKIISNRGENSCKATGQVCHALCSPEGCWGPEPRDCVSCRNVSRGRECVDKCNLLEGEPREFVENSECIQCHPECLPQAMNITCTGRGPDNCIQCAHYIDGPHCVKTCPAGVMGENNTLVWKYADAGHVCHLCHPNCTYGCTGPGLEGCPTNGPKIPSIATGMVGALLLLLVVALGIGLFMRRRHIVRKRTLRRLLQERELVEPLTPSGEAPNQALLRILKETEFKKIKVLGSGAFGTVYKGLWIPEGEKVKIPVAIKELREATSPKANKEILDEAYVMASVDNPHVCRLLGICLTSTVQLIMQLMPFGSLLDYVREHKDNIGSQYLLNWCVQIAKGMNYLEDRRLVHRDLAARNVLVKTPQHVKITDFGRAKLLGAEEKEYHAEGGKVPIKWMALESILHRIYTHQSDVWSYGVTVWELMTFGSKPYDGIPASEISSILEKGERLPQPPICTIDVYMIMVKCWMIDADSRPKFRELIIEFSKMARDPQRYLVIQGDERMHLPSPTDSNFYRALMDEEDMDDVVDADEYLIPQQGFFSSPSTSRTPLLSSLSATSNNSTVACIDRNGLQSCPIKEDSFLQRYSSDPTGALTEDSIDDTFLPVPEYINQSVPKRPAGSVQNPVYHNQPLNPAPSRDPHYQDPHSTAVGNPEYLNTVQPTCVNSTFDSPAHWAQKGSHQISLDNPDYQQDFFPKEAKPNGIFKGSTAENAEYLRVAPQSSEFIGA
Chain of EGFR L858R/C797S (P00533 25-1210 C797S/L858R): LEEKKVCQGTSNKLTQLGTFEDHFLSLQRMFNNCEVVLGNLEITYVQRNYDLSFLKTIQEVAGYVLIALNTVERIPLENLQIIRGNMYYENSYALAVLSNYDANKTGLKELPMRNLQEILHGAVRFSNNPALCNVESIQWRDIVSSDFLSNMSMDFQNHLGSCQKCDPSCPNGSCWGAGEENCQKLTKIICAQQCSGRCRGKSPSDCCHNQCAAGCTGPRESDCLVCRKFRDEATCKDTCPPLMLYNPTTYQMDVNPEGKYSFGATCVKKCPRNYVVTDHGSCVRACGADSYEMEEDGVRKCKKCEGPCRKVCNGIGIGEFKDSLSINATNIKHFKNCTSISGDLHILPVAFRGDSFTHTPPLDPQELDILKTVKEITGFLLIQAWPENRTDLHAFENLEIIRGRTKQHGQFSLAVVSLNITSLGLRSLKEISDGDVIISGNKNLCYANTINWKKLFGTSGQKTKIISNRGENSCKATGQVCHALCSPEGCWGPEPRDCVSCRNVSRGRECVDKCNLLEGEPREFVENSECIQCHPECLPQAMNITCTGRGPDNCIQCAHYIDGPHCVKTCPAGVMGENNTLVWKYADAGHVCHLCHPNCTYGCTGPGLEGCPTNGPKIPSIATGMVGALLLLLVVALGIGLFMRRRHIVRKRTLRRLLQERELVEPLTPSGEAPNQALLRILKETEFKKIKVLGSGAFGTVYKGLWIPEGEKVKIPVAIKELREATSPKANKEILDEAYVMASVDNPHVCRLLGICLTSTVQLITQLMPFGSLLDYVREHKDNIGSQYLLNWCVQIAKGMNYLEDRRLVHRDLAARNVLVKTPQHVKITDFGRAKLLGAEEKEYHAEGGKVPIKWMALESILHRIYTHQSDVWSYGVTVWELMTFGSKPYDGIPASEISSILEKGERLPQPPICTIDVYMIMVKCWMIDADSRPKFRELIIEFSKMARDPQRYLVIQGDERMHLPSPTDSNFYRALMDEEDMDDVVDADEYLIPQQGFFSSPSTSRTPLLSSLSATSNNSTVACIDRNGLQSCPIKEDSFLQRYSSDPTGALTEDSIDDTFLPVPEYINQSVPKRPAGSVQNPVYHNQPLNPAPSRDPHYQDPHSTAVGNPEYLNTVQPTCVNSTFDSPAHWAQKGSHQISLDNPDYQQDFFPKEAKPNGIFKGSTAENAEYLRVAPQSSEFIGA
Chain of EGFR del19/C797S (P00533 with tags, fused parts or gaps DEL746-750/C797S): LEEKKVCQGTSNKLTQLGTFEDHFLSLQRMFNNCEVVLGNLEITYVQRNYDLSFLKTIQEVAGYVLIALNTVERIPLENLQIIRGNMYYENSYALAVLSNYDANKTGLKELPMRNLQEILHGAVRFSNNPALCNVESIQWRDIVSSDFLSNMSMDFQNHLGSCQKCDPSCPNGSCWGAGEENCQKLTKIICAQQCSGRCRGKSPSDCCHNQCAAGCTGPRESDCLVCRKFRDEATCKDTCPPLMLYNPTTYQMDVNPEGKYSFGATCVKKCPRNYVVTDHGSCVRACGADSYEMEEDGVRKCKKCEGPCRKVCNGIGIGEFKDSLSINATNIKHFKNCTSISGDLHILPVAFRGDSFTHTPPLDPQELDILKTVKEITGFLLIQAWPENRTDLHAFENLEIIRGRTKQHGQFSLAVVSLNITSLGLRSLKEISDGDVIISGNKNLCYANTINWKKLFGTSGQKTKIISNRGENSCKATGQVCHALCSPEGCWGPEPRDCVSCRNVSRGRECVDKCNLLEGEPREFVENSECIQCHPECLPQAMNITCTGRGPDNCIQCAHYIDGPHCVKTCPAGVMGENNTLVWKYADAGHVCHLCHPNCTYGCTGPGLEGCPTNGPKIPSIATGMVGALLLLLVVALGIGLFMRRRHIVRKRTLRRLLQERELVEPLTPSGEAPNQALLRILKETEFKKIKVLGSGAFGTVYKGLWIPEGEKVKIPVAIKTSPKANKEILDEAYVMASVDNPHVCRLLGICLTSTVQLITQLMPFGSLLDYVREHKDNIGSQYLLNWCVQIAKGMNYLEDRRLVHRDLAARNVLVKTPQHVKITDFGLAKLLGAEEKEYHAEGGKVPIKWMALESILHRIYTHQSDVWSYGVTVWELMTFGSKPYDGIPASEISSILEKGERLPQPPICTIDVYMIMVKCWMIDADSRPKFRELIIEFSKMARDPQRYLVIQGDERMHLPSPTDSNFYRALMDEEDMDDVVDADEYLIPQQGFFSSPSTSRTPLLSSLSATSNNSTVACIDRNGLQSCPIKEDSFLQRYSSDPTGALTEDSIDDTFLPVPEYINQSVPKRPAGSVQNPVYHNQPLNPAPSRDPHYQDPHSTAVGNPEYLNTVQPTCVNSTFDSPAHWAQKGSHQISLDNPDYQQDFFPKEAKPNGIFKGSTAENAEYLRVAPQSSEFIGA

Row | SMILES | IC50 (EGFR L858R/T790M/C797S; [2]) | IC50 (EGFR del19/C797S; [3]) | IC50 (EGFR wildtype (WT); [4]) | IC50 (EGFR L858R/T790M/C797S; [6]) | IC50 (EGFR del19/C797S; [7]) | IC50 (EGFR wildtype (WT); [8]) | other results
1 | OCC[C@H]1CC[C@H](Nc2cc(Nc3ccnc(-c4cnn(CC(F)F)c4)n3)ncc2-c2ccn(C(F)F)n2)CC1 [Example 147, 2-((1r,4r)-4-((2-((2-(1-(2,2-Difluoroethyl)-1H-pyrazol-4-yl)pyrimidin-4-yl)amino)-5-(1-(difluoromethyl)-1H-pyrazol-3-yl)pyridin-4-yl)amino)cyclohexyl)ethan-1-ol] | 0.8 nM | 93.9 nM | 51.5 nM | – | – | – | IC50 (EGFR L858R/C797S; [1]): 32.6 nM
2 | Cc1nn(CC(F)(F)F)cc1-c1nccc(Nc2cc(N[C@H]3CC[C@@](C)(O)CC3)c(-c3ccn(C(F)(F)F)n3)cn2)n1 [Example 341, (1s,4s)-1-Methyl-4-((2-((2-(3-methyl-1-(2,2,2-trifluoroethyl)-1H-pyrazol-4-yl)pyrimidin-4-yl)amino)-5-(1-(trifluoromethyl)-1H-pyrazol-3-yl)pyridin-4-yl)amino)cyclohexan-1-ol] | – | – | – | 0.9 nM | 22 nM | 48.4 nM | IC50 (EGFR L858R/C797S; [5]): 14.8 nM
3 | C[C@]1(O)CC[C@@H](Nc2cc(Nc3ccnc(-c4cnn(S(=O)(=O)C5CC5)c4)n3)ncc2-c2ccn(CC(F)(F)F)n2)CC1 [Example 289, (1s,4s)-4-((2-((2-(1-(Cyclopropylsulfonyl)-1H-pyrazol-4-yl)pyrimidin-4-yl)amino)-5-(1-(2,2,2-trifluoroethyl)-1H-pyrazol-3-yl)pyridin-4-yl)amino)-1-methylcyclohexan-1-ol] | – | – | 17.4 nM | – | – | – | IC50 (EGFR L858R/C797S; [9]): 27.4 nM; IC50 (EGFR del19/C797S; [10]): 2.7 nM; IC50 (EGFR wildtype (WT); [11]): > 10000 nM
4 | C[C@]1(O)CC[C@@H](Nc2cc(Nc3ccnc(-c4cnn(S(=O)(=O)C5CC5)c4)n3)ncc2-c2ccn(C(F)F)n2)CC1 [Example 10, (1s,4s)-4-((2-((2-(1-(Cyclopropylsulfonyl)-1H-pyrazol-4-yl)pyrimidin-4-yl)amino)-5-(1-(difluoromethyl)-1H-pyrazol-3-yl)pyridin-4-yl)amino)-1-methylcyclohexan-1-ol] | – | – | – | – | – | – | IC50 (EGFR L858R/C797S; [9]): 2.7 nM; IC50 (EGFR L858R/T790M/C797S; IC50 L858R/T790M/C797S (nM) 100 μM ATP, 100 μM ATP): 1.3 nM; IC50 (EGFR del19/C797S; [10]): 3.2 nM; IC50 (EGFR wildtype (WT); [11]): 1060 nM
5 | Cn1nc(-c2cnc(Nc3ccnc(-c4cnn(CC(F)F)c4)n3)cc2N[C@H]2CC[C@@H](CCO)CC2)cc1C(F)(F)F [Example 333, 2-((1s,4s)-4-((2-((2-(1-(2,2-Difluoroethyl)-1H-pyrazol-4-yl)pyrimidin-4-yl)amino)-5-(1-methyl-5-(trifluoromethyl)-1H-pyrazol-3-yl)pyridin-4-yl)amino)cyclohexyl)ethan-1-ol] | – | – | – | 2.9 nM | 16.5 nM | 61.5 nM | IC50 (EGFR del19/T790M/C797S; read-out: IC50 del19/T790M/C797S, Km ATP): 4.4 nM
6 | Cn1cc(C#Cc2cc(Nc3ccnc(-c4cnn(S(=O)(=O)C5CC5)c4)n3)ncc2-c2cnn(C3CC3)c2)cn1 [Example 1, N-(5-(1-Cyclopropyl-1H-pyrazol-4-yl)-4-((1-methyl-1H-pyrazol-4-yl)ethynyl)pyridin-2-yl)-2-(1-(cyclopropylsulfonyl)-1H-pyrazol-4-yl)pyrimidin-4-amine] | 5.9 nM | 63 nM | 88.5 nM | – | – | – | IC50 (EGFR del19/T790M/C797S; read-out: IC50 del19/T790M/C797S (nM) Km ATP): 99 nM

More lines, main results first:

Row | IC50 (EGFR L858R/T790M/C797S; [2]) | IC50 (EGFR del19/C797S; [3]) | IC50 (EGFR wildtype (WT); [4]) | IC50 (EGFR L858R/T790M/C797S; [6]) | IC50 (EGFR del19/C797S; [7]) | IC50 (EGFR wildtype (WT); [8]) | SMILES | other results
7 | 0.7 nM | 2.3 nM | 3.2 nM | – | – | – | C[C@]1(O)CC[C@@H](Nc2cc(Nc3ccnc(-c4cnn(S(=O)(=O)C5CC5)c4)n3)ncc2-c2ccn(C(F)(F)F)n2)CC1 [Example 285, (1s,4s)-4-((2-((2-(1-(Cyclopropylsulfonyl)-1H-pyrazol-4-yl)pyrimidin-4-yl)amino)-5-(1-(trifluoromethyl)-1H-pyrazol-3-yl)pyridin-4-yl)amino)-1-methylcyclohexan-1-ol] | IC50 (EGFR L858R/C797S; [1]): 0.6 nM
8 | – | – | – | 2.3 nM | 45.4 nM | 306 nM | CC(C)(O)[C@H]1CC[C@@H](Nc2nc(Nc3ccnc(-c4cnn(S(=O)(=O)C5CC5)c4)c3)ncc2-c2ccn(C(F)F)n2)CC1 [Example 365, 2-((1s,4s)-4-((2-((2-(1-(Cyclopropylsulfonyl)-1H-pyrazol-4-yl)pyridin-4-yl)amino)-5-(1-(difluoromethyl)-1H-pyrazol-3-yl)pyrimidin-4-yl)amino)cyclohexyl)propan-2-ol] | IC50 (EGFR L858R/C797S; [5]): 48.4 nM
